We go through 6 compounds from US20250368666A1, “INDAZOLE COMPOUNDS” (TYRA BIOSCIENCES, INC., priority 2022, published 2025).

The term IC50 denotes the concentration that gives 50% inhibition. A word on the Kd: it is the constant that tells how readily two partners part at equilibrium.

Assay [1] has as its system RT112/84 cell line (FGFR3-fusion). As to the kind of experiment: Cancer cell line cell viability assay (Cell Titer-Glo), 72 hr. It is filed as cell-based. As to conditions: Homo sapiens. Summed up:
(§1)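 ATP-based luminescence (Cell Titer-Glo 2.0) measured viability after 72 h (KG-1, RT112/84) or 120 h (MDA-MB-453, HuH7) compound exposure. Dosing was nine 4-fold steps starting at 3 μM, in triplicate, on overnight-plated cells. IC50 came from a variable-slope 4-parameter fit of % DMSO control.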
On the technique in general: Cellular ATP, detected with luciferase, serves as a proxy for viable cell number.

Assay [2] deals with KG-1 cell line (FGFR 1-fusion). The assay is described as above. The note with it: Homo sapiens. It is filed as cell-based. Summed up:
as §1

Assay [3] deals with KATO-III cell line (FGFR2 amplification). The assay is described as above. It is filed as cell-based. The note with it: Homo sapiens. A digest of the protocol: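 Luminescent ATP read-out (Cell Titer-Glo 2.0) after compound exposure, normalised to DMSO-only wells. Dosing: 9 concentrations, 4-fold steps, top 3 μM, triplicates. IC50 derived by log(inhibitor) vs. response 4-parameter fit.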

For another assay, the target named is T1, FGFR2 (Homo sapiens, UniProt P21802).
T1 construct: made in house; host or cells: E. coli (BL21-derived), T7 phage
As to the kind of experiment: Kinase binding assay (kinase-tagged T7 phage, affinity beads, qPCR), Kd. The note with it: read-out: FGFR2 (Kd nM). Summed up: (§2)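 Competition binding; kinase-tagged T7 phage lysate vs immobilised biotinylated ligand on streptavidin beads, 0.9% DMSO final. 11-pt 3-fold dilutions, 3 DMSO controls. qPCR of eluted kinase; Kd by Hill fit, slope −1.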
On the technique in general: In qPCR the cycle at which signal appears reflects the starting amount.

The target in another assay is T2, FGFR3 (Homo sapiens, UniProt P22607).
T2 construct: made in house; host or cells: E. coli (BL21-derived), T7 phage
Described as above. As to conditions: read-out: FGFR3 (Kd nM). Summed up: as §2

In a further assay the target is T3, FGFR1 (Homo sapiens, UniProt P11362).
T3 construct: made in house; host or cells: E. coli (BL21-derived), T7 phage
The description is as above. As to conditions: read-out: FGFR1 (Kd nM). Summed up: as §2

A further assay addresses T4, FGFR4 (Homo sapiens, UniProt P22455).
T4 construct: made in house; host or cells: E. coli (BL21-derived), T7 phage
Described as above. The note with it: read-out: FGFR4 (Kd nM). A digest of the protocol:
as §2

Another assay deals with T5, FGFR3 (V555M) (Homo sapiens, UniProt P22607, V555M).
T5 construct: made in house; host or cells: E. coli (BL21-derived), T7 phage
Described as above. The note with it: V555M mutant; read-out: FGFR3 (V555M) (Kd nM). Summed up: as §2

[4] abbreviates: RT112/84, RT112/84 cell line (FGFR3-fusion).
[5] abbreviates: KG-1, KG-1 cell line (FGFR1-fusion).

T3 sequence (P11362 22-822): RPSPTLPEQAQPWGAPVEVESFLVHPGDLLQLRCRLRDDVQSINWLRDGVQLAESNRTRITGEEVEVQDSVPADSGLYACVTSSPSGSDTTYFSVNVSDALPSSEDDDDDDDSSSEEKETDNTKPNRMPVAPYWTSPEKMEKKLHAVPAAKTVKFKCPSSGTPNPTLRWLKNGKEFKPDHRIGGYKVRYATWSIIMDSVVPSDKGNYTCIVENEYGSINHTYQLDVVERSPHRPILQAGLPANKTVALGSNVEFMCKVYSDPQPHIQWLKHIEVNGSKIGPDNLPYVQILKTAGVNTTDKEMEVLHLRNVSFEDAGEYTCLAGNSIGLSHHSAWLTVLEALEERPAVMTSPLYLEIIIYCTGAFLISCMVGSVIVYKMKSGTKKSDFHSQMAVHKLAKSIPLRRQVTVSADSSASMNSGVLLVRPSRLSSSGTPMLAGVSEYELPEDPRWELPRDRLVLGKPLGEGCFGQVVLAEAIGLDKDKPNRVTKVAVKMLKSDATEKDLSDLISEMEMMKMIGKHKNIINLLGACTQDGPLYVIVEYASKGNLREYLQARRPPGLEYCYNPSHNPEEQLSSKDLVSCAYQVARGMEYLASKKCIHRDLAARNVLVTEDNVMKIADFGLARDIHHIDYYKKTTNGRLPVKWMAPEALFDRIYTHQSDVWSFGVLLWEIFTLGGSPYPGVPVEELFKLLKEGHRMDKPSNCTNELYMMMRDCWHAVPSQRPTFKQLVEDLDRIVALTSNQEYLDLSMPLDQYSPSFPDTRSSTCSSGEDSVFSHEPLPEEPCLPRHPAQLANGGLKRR
T4 sequence (P22455 22-802): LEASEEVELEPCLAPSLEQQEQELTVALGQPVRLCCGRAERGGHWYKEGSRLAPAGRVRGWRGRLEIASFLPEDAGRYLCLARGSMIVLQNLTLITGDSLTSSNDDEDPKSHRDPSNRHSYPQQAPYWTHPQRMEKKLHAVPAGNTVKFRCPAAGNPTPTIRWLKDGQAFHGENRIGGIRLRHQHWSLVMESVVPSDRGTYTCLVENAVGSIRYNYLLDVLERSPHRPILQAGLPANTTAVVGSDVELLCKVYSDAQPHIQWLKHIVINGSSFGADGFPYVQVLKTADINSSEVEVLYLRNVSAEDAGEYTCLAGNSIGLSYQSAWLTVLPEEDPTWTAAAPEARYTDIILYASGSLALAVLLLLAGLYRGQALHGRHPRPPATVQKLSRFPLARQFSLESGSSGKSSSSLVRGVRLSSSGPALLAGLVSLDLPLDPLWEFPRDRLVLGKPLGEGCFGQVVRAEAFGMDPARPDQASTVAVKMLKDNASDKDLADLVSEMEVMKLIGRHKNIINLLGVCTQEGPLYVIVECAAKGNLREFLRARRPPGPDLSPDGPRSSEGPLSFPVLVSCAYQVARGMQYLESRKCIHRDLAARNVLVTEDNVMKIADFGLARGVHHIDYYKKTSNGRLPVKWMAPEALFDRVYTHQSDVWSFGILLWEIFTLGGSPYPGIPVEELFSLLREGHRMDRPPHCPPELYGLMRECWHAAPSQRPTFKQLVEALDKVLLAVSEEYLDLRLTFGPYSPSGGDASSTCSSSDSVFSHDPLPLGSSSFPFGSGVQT
T2 sequence (P22607 23-806): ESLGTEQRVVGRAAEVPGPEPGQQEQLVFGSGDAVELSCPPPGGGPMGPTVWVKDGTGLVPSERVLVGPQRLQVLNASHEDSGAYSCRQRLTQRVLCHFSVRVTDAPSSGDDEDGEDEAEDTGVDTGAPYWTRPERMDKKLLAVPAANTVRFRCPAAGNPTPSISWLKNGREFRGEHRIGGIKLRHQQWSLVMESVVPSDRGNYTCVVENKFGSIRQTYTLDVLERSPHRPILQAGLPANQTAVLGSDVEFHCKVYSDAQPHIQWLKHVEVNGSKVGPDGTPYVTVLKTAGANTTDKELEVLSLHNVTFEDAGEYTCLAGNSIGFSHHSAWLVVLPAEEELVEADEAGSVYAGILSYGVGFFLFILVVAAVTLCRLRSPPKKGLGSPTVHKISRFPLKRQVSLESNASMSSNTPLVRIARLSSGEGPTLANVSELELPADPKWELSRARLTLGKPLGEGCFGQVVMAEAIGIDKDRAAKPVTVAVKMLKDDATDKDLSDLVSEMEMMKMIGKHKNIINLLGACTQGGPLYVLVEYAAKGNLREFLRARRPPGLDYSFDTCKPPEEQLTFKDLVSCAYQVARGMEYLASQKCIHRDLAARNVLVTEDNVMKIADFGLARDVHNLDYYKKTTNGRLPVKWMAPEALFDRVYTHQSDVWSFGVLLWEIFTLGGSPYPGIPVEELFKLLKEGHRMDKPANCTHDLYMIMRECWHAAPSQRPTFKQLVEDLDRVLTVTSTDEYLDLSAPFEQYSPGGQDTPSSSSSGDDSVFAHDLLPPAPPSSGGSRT
T1 sequence (P21802 22-821): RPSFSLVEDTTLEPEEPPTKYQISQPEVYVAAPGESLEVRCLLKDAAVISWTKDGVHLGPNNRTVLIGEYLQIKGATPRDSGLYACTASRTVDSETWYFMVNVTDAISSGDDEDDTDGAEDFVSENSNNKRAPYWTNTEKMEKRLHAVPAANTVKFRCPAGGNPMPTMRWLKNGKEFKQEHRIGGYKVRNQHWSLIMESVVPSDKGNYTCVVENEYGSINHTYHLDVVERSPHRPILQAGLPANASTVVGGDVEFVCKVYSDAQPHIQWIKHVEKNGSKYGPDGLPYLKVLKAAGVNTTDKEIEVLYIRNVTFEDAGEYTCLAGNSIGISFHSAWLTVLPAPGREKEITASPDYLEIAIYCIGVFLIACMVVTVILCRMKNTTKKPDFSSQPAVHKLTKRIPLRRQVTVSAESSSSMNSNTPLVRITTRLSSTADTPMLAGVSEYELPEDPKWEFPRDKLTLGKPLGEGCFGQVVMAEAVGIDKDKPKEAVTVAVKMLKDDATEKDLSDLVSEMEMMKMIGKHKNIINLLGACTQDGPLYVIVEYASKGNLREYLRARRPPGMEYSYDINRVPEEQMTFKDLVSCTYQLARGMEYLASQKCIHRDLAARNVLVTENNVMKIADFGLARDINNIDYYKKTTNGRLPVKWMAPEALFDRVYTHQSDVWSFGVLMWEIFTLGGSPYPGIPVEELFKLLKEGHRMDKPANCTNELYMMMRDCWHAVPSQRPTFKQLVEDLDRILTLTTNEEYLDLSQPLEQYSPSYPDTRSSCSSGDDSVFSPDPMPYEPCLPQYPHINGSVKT
T5 sequence (P22607 23-806 V555M): as the sequence (P22607 23-806) above, with V533M counted along it

As for `Cc1ncc(Cl)c([C@@H](C)Oc2ccc3[nH]nc(-c4cnc(N5CC(C)(NCC6CC6)C5)c(F)c4)c3c2)c1Cl` [Example 209, N-(cyclo-propylmethyl)-1-[5-[5-[(1R)-1-(3,5-dichloro-2-methyl-4-pyridyl)ethoxy]-1H-indazol-3-yl]-3-fluoro-2-pyridyl]-3-methyl-azetidin-3-amine], the IC50 in assay [1] (setting [4]), in assay [2] (setting [5]) and in assay [3] (KATO III) was 50 to 200 nM each time. In addition, the Kd on FGFR2, on FGFR3, at FGFR1, at FGFR4 and at FGFR3 (V555M) was 1 to 50 nM in each case.

For the compound `Cc1ncc(Cl)c([C@@H](C)Oc2ccc3[nH]nc(-c4cnc(N5CC(C)(CS(C)(=O)=O)C5)c(F)c4)c3c2)c1Cl` [Example 210, 5-[(1R)-1-(3,5-dichloro-2-methyl-4-pyridyl)ethoxy]-3-[5-fluoro-6-[3-methyl-3-(methylsulfonyl-methyl)azetidin-1-yl]-3-pyridyl]-1H-indazole], the concentration for half-maximal inhibition (IC50) in assay [1] (setting [4]) was in the range of 0.1 to 50 nM; in assay [2] (setting [5]), 200 to 1000 nM; in assay [3] (KATO III), 50 to 200 nM. The Kd on FGFR2 was 1 to 50 nM; on FGFR3, 1 to 50 nM; on FGFR1 it was 50 to 300 nM; at FGFR4 it was 1 to 50 nM; at FGFR3 (V555M), 1 to 50 nM.

`C[C@@H]1CN(C2(C)CN(c3ccc(-c4n[nH]c5ccc(O[C@H](C)c6c(Cl)cncc6Cl)cc45)cn3)C2)CCO1` [Example 211, (R)-4-(1-(5-(5-((R)-1-(3,5-dichloropyridin-4-yl)ethoxy)-1H-indazol-3-yl)pyridin-2-yl)-3-methylazetidin-3-yl)-2-methylmorpholine]: the IC50 in assay [1] (setting [4]) lay within 0.1 to 50 nM; in assay [2] (setting [5]), 50 to 200 nM; in assay [3] (KATO III) it was 0.1 to 50 nM. Also, the Kd on FGFR2, on FGFR3, at FGFR1, at FGFR4 and at FGFR3 (V555M) was 1 to 50 nM each time.

As for `C[C@H]1CN(C2(C)CN(c3ccc(-c4n[nH]c5ccc(O[C@H](C)c6c(Cl)cncc6Cl)cc45)cn3)C2)CCO1` [Example 212, (S)-4-(1-(5-(5-((R)-1-(3,5-dichloropyridin-4-yl)ethoxy)-1H-indazol-3-yl)pyridin-2-yl)-3-methylazetidin-3-yl)-2-methylmorpholine], the IC50 in assay [1] (setting [4]) is 0.1 to 50 nM; in assay [2] (setting [5]), 50 to 200 nM; in assay [3] (KATO III), 0.1 to 50 nM. Further, the dissociation constant (Kd) on FGFR2, on FGFR3, on FGFR1, at FGFR4 and at FGFR3 (V555M) was 1 to 50 nM in each case.

In the case of `C[C@@H]1CN(C2(C)CN(c3ncc(-c4n[nH]c5ccc(O[C@H](C)c6c(Cl)cncc6Cl)cc45)cc3F)C2)CCO1` [Example 213, (R)-4-(1-(5-(5-((R)-1-(3,5-dichloropyridin-4-yl)ethoxy)-1H-indazol-3-yl)-3-fluoropyridin-2-yl)-3-methylazetidin-3-yl)-2-methylmorpholine], the values for the half-inhibitory concentration (IC50) in assay [1] (setting [4]), in assay [2] (setting [5]) and in assay [3] (KATO III) were 0.1 to 50 nM, 200 to 1000 nM and 50 to 200 nM, respectively. Besides, the Kd at FGFR2, at FGFR3, at FGFR1, at FGFR4 and on FGFR3 (V555M) was 1 to 50 nM each time.

On to `COP(=O)(CC1(C)CN(c2ccc(-c3n[nH]c4ccc(O[C@H](C)c5c(Cl)cncc5Cl)cc34)cn2)C1)OC` [Example 214, (R)-dimethyl ((1-(5-(5-(1-(3,5-dichloropyridin-4-yl)ethoxy)-1H-indazol-3-yl)pyridin-2-yl)-3-methylazetidin-3-yl)methyl)phosphonate], for which the IC50 in assay [1] (RT112/84 cell line (FGFR3-fusion)) was in the range of 0.1 to 50 nM; in assay [2] (KG-1 cell line (FGFR1-fusion)), 50 to 200 nM; in assay [3] it was 0.1 to 50 nM. For the same compound, the equilibrium dissociation constant (Kd) at FGFR2, at FGFR3, on FGFR1, on FGFR4 and at FGFR3 (V555M) was 1 to 50 nM throughout.
